Experimental data taken from patent publication US9388215B2, “Compositions and methods of using islet neogenesis peptides and analogs thereof” (SHENZHEN HIGHTIDE BIOPHARMACEUTICAL, LTD., priority 2013, dated 2016).
Where two headings read alike, the source gives them in different places.

Tests used:
[1] = Pharmacokinetics in SD rats after single subcutaneous dose (Example X); type: in vivo, rat; settings: plasma, sc, male Sprague-Dawley rat, subcutaneous, 25 mg/kg; for AUC(0-t): read-out: AUC(0-t); for AUC(0-inf): read-out: AUC(0-∞); for Cmax: read-out: Cmax
Method: After 7 days acclimation, a total of 15 male Sprague-Dawley (SD) rats (body weight: 230 to 270 g) in good health from Sino-British SIPPR/BK Lab Animal Ltd, Shanghai, were used in the study. All peptides, Peptide 1, Peptide 12, Peptide 16, Peptide 29 or Peptide 31, were dissolved in sterile normal saline respectively to yield the desired final concentrations and were administered via single subcutaneous (sc) dose.
Three animals in each group were used for blood collection at the time point of 5 min, 15 min, 30 min, 1 h, 2 h, 4 h, 6 h, 8 h and 24 h post-dose. Blood samples (approximately 400 μL) were collected and placed into tubes containing EDTA-K2 (dipotassium ethylene diamine tetraacetic acid) and centrifuged at 8000 rpm for 6 minutes at 4° C. to separate plasma from the samples. The resulting plasma was stored frozen at −80° C. until being analyzed.
Plasma concentrations of peptides were determined using tandem mass spectrometry (LC-MS/MS) analysis. A non-compartmental module of WinNonlin® Professional 5.2 (Pharsight; St. Louis Mo.) was used to calculate PK parameters. AUC(0-t) represents area under the curve from the time of dosing to the time of the last observation, the AUC(0-∞) represents area under the curve from the time of dosing to infinity, and the Cmax represents maximum concentration detected.

[2] = Peptide concentration in plasma and pancreas 30 min post dose; type: in vivo, rat; settings: male SD rats, sc bolus 25 mg/kg, 30 min post-dose; for level at 0.5 h: male, Sprague-Dawley, rat, sc, 25 mg/kg
Method: To further characterize the pharmacokinetic (PK) properties of peptides, peptide concentration in pancreas—the target organ, was determined 30 min post dose. Briefly, INGAP-PP (Peptide 1), Peptide 12, or Peptide 31 was dissolved in sterile normal saline and then was administered via subcutaneous (sc) bolus at the dose level of 25 mg/kg to male Sprague-Dawley (SD) rats. Five animals in each group were used for blood and pancreas collection at the time point of 30 min post-dose. Blood samples (approximately 400 μL) were collected and placed into tubes containing EDTA-K2 and centrifuged at 8000 rpm for 6 minutes at 4° C. to separate plasma from the samples. After blood extraction and animal sacrifice, the pancreas was removed immediately from each animal, cleared of fat and lymph nodes, weighed, and placed into 5 fold volume of ice cold sterile normal saline with protease inhibitor cocktail (Merck Millipore, catalogue #539137) to homogenize with a homogenizer.
The peptide concentration of the plasma and pancreatic homogenate was determined immediately using tandem mass spectrometry (LC-MS/MS) analysis and the results are presented in Table 8.

[3] = Peptide stability in rat plasma; type: in vitro ADME; settings: 100 μg/mL, 37° C.; FIG. 12, 13
Method: The stability of peptides was also tested in rat, mouse and human plasma. Briefly, a certain amount of peptides and eucatropine powder (positive control) was accurately weighed. Test compounds were dissolved in 50% methanol-water solution and diluted to 20 mg/mL, and eucatropine was dissolved in dimethylsulfoxide (DMSO) and diluted to 10 mM, as a stock solution. Eucatropine stock solution was diluted to 0.2 mM with DMSO as a working solution. A stop reagent was prepared containing 200 ng/mL midazolam and tolbutamide in acetonitrile. A volume of 300 μL of stop solution was added to each well of a 96-well deep-well plate placed on ice beforehand.
For the stability studies, peptides and eucatropine were spiked into plasma respectively, mixed well, and then 100 μL of each mixture solution was transferred into the pre-cooled stop reagent as 0 time point sample. The remaining mixtures were incubated in a 37° C. water bath with shaking at 100 rpm (n=2). The final incubation concentration was 1 μM for eucatropine and 100 μg/mL for all test compounds.
At desired time points, 100 μL of incubation mixture was transferred to the stop reagent to precipitate proteins. Samples were vortexed and centrifuged at RCF 5000×g for 10 minutes, and supernatant was transferred to a test plate. The samples were analyzed by LC-MS/MS.
Slope was calculated by plotting the natural logarithm of the percentage of remaining amount of test compounds and time, and T1/2 was calculated in accordance with the following formula.
For stability in rat plasma, the incubation time was 0, 15, 30, 60 and 120 min for Peptide 1 and eucatropine, and 0, 15, 30, 60, 120, and 240 min for Peptide 12, Peptide 16, Peptide 29 and Peptide 31.
In another stability study in rat plasma, the incubation time was 0, 30, 60 120 and 240 min for Peptide 2, Peptide 52, Peptide 64 and eucatropine.

pancreatic islets = test: Glucose-stimulated insulin secretion (GSIS) of isolated islets; type: cell-based, rat; settings: 12.0 mM glucose; 10 μg/mL peptide or 100 nM GLP-1; 60 min; FIG. 8
Method: The pancreases were procured from male adult Sprague-Dawley (SD) rats. After 7 days acclimation, the animals were sacrificed by cervical dislocation and the entire pancreas was removed and digested with collagenase to isolate islets. After digestion, islets were maintained at 37° C. in RPMI 1640 (Carlsbad Calif., USA) pH 7.4, containing 10% (v/v) fetal calf serum, 1% penicillin/streptomycin, and 10 mM glucose in a humid atmosphere (5% CO2/95% O2), without the addition of any compound (control), or with the addition of 100 nM glucagon like peptide-1 (GLP-1); or 10 μg/mL Peptide 1, Peptide 12, or Peptide 16, as summarized in Table 4 below. Cultured islets were rinsed in Krebs-Ringer bicarbonate buffer (KRB), pH 7.4, previously gassed with a mixture of CO2/O2 (5/95%), and pre-incubated in 1.0 ml of KRB containing 0.5% (w/v) BSA and 1.5 mM glucose at 37° C. for 45 min. After this period, groups of 5 islets were incubated in 0.6 ml KRB with the addition of 1.5 or 12.0 mM glucose, with or without the addition of peptides for 60 min. At the end of the incubation period, aliquots of the medium were collected for insulin quantitation.

[4] = plasma, read-out: Peptide concentration, Plasma

Q: Which AUC(0-t) [1] does the source give for “Ac-IGLHDPSHGTLPNGS-NH2 [Peptide 31, Ac-IGLHDPSHGTLPNGS-NH2]” here?
A: Its AUC(0-t) is 15600 ± 1530 ng·h/mL.

Q: What about the AUC(0-inf) [1] of the same substance?
A: Its AUC(0-inf) is 15600 ± 1530 ng·h/mL.

Q: What about the Cmax [1] of the same substance?
A: Its Cmax is 26000 ± 3100 ng/mL.

Q: And the level at 0.5 h ([2]; pancreas (homogenate), pancreatic homogenate, read-out: Peptide concentration, Pancreas)?
A: Its level at 0.5 h is 1630 ± 340 ng/mL.

Q: And the level at 0.5 h [2, 4]?
A: Its level at 0.5 h is 15400 ± 3520 ng/mL.

Q: And the “stability in rat plasma” value [3]?
A: Its value is “exhibited good stability in rat plasma and were more stable than INGAP-PP”.

Q: For “Ac-IGLHDPSHGTLPNGS-OH [Peptide 16, Ac-IGLHDPSHGTLPNGS-OH]”, which “glucose-stimulated insulin release vs islets without peptide” value (pancreatic islets) is on record?
A: The value was “released significantly more insulin than those cultured without the addition of peptides”.

Q: What about the AUC(0-t) [1] of the same substance?
A: Its AUC(0-t) is 11200 ± 1880 ng·h/mL.

Q: What about the AUC(0-inf) [1] of the same substance?
A: The AUC(0-inf) was 11200 ± 1880 ng·h/mL.

Q: And the Cmax [1]?
A: The Cmax was 22100 ± 5870 ng/mL.

Q: And the “stability in rat plasma” value [3]?
A: Its value is “exhibited good stability in rat plasma and were more stable than INGAP-PP”.

Q: With “H-IGLHDPSHGTLPNGS-OH [Peptide 1, H-IGLHDPSHGTLPNGS-OH, reference compound]” as the substance, how does the “glucose-stimulated insulin release vs islets without peptide” value (pancreatic islets) read?
A: The value was “no stimulation was observed”.

Q: And the AUC(0-t) [1]?
A: Its AUC(0-t) is 294 ± 125 ng·h/mL.

Q: And the AUC(0-inf) [1]?
A: The AUC(0-inf) was 298 ± 122 ng·h/mL.

Q: What about the Cmax [1] of the same substance?
A: Its Cmax is 1190 ± 610 ng/mL.

Q: And the “Peptide concentration, Pancreas” value ([2]; pancreatic homogenate)?
A: Its value is “NA (Below the lower limit of quantitation (LLOQ) 2.5 ng/mL)”.

Q: What about the level at 0.5 h [2, 4] of the same substance?
A: The level at 0.5 h was 210 ± 107 ng/mL.
